Results taken from paper PMC6199744, “Development of Chemical Proteomics for the Folateome and Analysis of the Kinetoplastid Folateome” (ACS Infectious Diseases, 2018).

System: L. major lysate proteins
Experiment: Multitargeted bead mixture chemoproteomics, single concentration competition, proteome-wide
Assay type: binding
Settings: for fold change: vehicle control = 1

## Nc1nc2[nH]cc(CCc3ccc(C(=O)N[C@@H](CCC(=O)O)C(=O)O)cc3)c2c(=O)[nH]1 [PTX, pemetrexed]
Protein LMJF.28.0110 […] 3 SUBUNIT, PUTATIVE
  fold change vs vehicle control: 0.95
Protein LMJF.28.0490 PROPIONYL-COA C[…] CHAIN, PUTATIVE
  fold change vs vehicle control: 1.09
Protein LMJF.28.0710 HY[…], CONSERVED (SNARE associated Golgi protein, putative)
  fold change: 0.8
Protein LMJF.28.0930 HY[…], CONSERVED
  fold change vs vehicle control: 0.96
Protein LMJF.28.0960 40S RIBOSOMAL PROTEIN S14
  fold change vs vehicle control: 1.01
Protein LMJF.28.1530 ATP DEPENDENT DEAD-BOX HELICASE, PUTATIVE
  fold change vs vehicle control: 0.81
Protein LMJF.28.1730, […]-ATP-ASE SUBUNIT 2, PUTATIVE
  fold change relative to vehicle control: 1.01
Protein LMJF.28.2430 VACUOLAR ATP SYNTHASE SUBUNIT B, PUTATIVE
  fold change vs vehicle control: 0.95
Protein LMJF.28.2770, HEAT-SHOCK PROTEIN HSP70, PUTATIVE
  fold change relative to vehicle control: 1.13
Protein LMJF.28.2910 GLUTAMATE DEHYDROGENASE, PUTATIVE
  fold change: 0.86
Protein LMJF.29.0120 […]-ATPASE SUBUNIT, PUTATIVE
  fold change vs vehicle control: 0.92
Protein LMJF.29.0620 ATP-BINDING CASSETTE PROTEIN SUBFAMILY A, MEMBER 10, PUTATIVE
  fold change: 0.73
Protein LMJF.29.0850, HIGH MOBILITY GROUP PROTEIN HOMOLOG TDP-1, PUTATIVE
  fold change relative to vehicle control: 1.14
Protein LMJF.29.0940 HY[…], CONSERVED
  fold change vs vehicle control: 1
Protein LMJF.29.1160 TRYPAREDOXIN
  fold change vs vehicle control: 0.85
Protein LMJF.29.1240 HY[…], UNKNOWN FUNCTION
  fold change vs vehicle control: 0.95
Protein LMJF.29.1270 100 kDa heat shock protein (Hsp100)
  fold change vs vehicle control: 0.95
Protein LMJF.29.1310 CARNITINE/CHOLINE ACETYLTRANSFERASE, PUTATIVE
  fold change vs vehicle control: 0.97
Protein LMJF.29.1760, PAR[…] PROTEIN 1D, PUTATIVE
  fold change relative to vehicle control: 1.4
Protein LMJF.29.1780 D[…] PROTEIN, PUTATIVE
  fold change vs vehicle control: 0.9
Protein LMJF.29.2200 GTP-BINDING PROTEIN, PUTATIVE (dynamin-1-like protein)
  fold change: 0.98
Protein LMJF.29.2310 ENOYL-COA HYDRATASE/ISOMERASE-LIKE PROTEIN
  fold change: 0.93
Protein LMJF.29.2360 ASPARTYL AMINOPEPTIDASE, PUTATIVE,METALLO-PEPTIDASE, CLAN MH, FAMILY M20
  fold change vs vehicle control: 0.84
Protein LMJF.29.2860 40S RIBOSOMAL PROTEIN S19-LIKE PROTEIN
  fold change: 1.11
Protein LMJF.30.0580 HY[…], CONSERVED (AMP-binding enzyme, putative)
  fold change: 0.77
Protein LMJF.30.0850 SURFACE PROTEIN AMASTIN, PUTATIVE
  fold change: 0.89
Protein LMJF.30.1250 PYRIDOXAL KINASE, PUTATIVE
  fold change vs vehicle control: 1.01
Protein LMJF.30.3090, HY[…], CONSERVED (RNA-binding protein 42, putative)
  fold change relative to vehicle control: 1.14
Protein LMJF.30.3240 GLUTAMYL-TRNA SYNTHETASE, PUTATIVE
  fold change vs vehicle control: 1.09
Protein LMJF.30.3430 HY[…], CONSERVED (protein mkt1, putative)
  fold change: 0.97
Protein LMJF.30.3520 S-ADENOSYL[…]
  fold change: 0.85
Protein LMJF.30.3570 ZINC FINGER-DOMAIN PROTEIN, PUTATIVE
  fold change: 0.7
Protein LMJF.31.0080, HY[…], CONSERVED
  fold change relative to vehicle control: 1.19
Protein LMJF.31.0340 AMINO ACID PERMEASE, PUTATIVE
  fold change vs vehicle control: 0.93
Protein LMJF.31.1130 N-ACYL-L-AMINO ACID AMIDOHYDROLASE, PUTATIVE
  fold change: 0.96
Protein LMJF.31.1640 THIOLASE PROTEIN-LIKE PROTEIN
  fold change vs vehicle control: 0.95
Protein LMJF.31.2150, PROSTAGLANDIN F2-ALPHA SYNTHASE/D-ARABINOSE DEHYDROGENASE
  fold change relative to vehicle control: 0.94
Protein LMJF.31.2250 3,2-TRANS-ENOYL-COA ISOMERASE, MIT[…], PUTATIVE
  fold change vs vehicle control: 0.92
Protein LMJF.32.0750 RNA BINDING PROTEIN, PUTATIVE
  fold change vs vehicle control: 1.04
Protein LMJF.32.1060 DYNEIN, PUTATIVE
  fold change vs vehicle control: 0.94
Protein LMJF.32.1820, IRON SUPEROXIDE DISMUTASE, PUTATIVE
  fold change relative to vehicle control: 1.02
Protein LMJF.32.2320, C-14 STEROL REDUCTASE, PUTATIVE
  fold change relative to vehicle control: 1.11
Protein LMJF.32.3870 MYOSIN XXI
  fold change vs vehicle control: 0.93
Protein LMJF.33.0240, THIOL-DEPENDENT REDUCTASE 1
  fold change relative to vehicle control: 1.12
Protein LMJF.33.0280 HY[…], CONSERVED
  fold change: 1.02
Protein LMJF.33.0890, HY[…], CONSERVED
  fold change relative to vehicle control: 0.88
Protein LMJF.33.1070 HY[…], UNKNOWN FUNCTION
  fold change vs vehicle control: 1.02
Protein LMJF.33.1330 CYSTEINE CONJUGATE BETA-LYASE, AMINOTRANSFERASE- LIKE PROTEIN
  fold change vs vehicle control: 0.74
Protein LMJF.33.1590 HY[…], CONSERVED (3-ketoacyl-CoA reductase, putative)
  fold change: 1.36
Protein LMJF.33.1860, ATP-BINDING CASSETTE PROTEIN SUBFAMILY D, MEMBER 3, PUTATIVE
  fold change relative to vehicle control: 1.27
Protein LMJF.33.2340, SUCCINYL-COA:3-KETOACID-COENZYME A TRANSFERASE, MIT[…], PUTATIVE
  fold change relative to vehicle control: 1.06
Protein LMJF.33.2440, HY[…], CONSERVED
  fold change relative to vehicle control: 1.15
Protein LMJF.33.2540, CARBOXYPEPTIDASE, PUTATIVE,METALLO-PEPTIDASE, CLAN MA(E), FAMILY M32
  fold change relative to vehicle control: 1.24
Protein LMJF.33.3150 40S RIBOSOMAL PROTEIN S13, PUTATIVE
  fold change: 1.05
Protein LMJF.34.0140, MALATE DEHYDROGENASE
  fold change relative to vehicle control: 1.48
Protein LMJF.34.0440 RIBOSOMAL PROTEIN S25
  fold change vs vehicle control: 1.12
Protein LMJF.34.2580, HY[…], CONSERVED (ALBA-domain protein 3)
  fold change relative to vehicle control: 1.03
Protein LMJF.34.3250, PUTATIVE PYRUVATE/INDOLE-PYRUVATE CARBOXYLASE, PUTATIVE
  fold change relative to vehicle control: 1.01
Protein LMJF.34.4370 20S […] 7 SUBUNIT, (PUTATIVE)
  fold change: 0.96
Protein LMJF.34.4620 HY[…], CONSERVED
  fold change vs vehicle control: 0.95
Protein LMJF.35.0070 PROHIBITIN, PUTATIVE
  fold change: 0.97
Protein LMJF.35.0360 ENOYL-COA HYDRATASE/ISOMERASE FAMILY PROTEIN, CONSERVED
  fold change vs vehicle control: 1.16
Protein LMJF.35.0370 ATP-DEPENDENT DEAD-BOX RNA HELICASE, PUTATIVE
  fold change: 0.95
Protein LMJF.35.0420 40S RIBOSOMAL PROTEIN S3A, PUTATIVE
  fold change: 1.12
Protein LMJF.35.1220, SHORT CHAIN DEHYDROGENASE, PUTATIVE
  fold change relative to vehicle control: 1.02
